In patent publication US20250340525A1, “F[…] COMPOUND” ([…], INC., priority 2022, published 2025):

Tested on: mice
Test: Anesthetic activity: inhalation exposure of mice in a microcircuit, loss-of-righting-reflex (LORR)
Type: in vivo
Details: inhalation exposure to vaporized compound/air mixture circulated through microcircuit, dose not quantified
Protocol: A sample of the product mixture formed in Step 4 of the synthesis of Example 1, comprising both cis- and trans-isomers of TTD (the “TTD mixture”), was administered to mice via inhalation exposure in a microcircuit connected using unidirectional airflow valves to a CO2 absorbent chamber and a glass syringe. A small amount of liquid TTD mixture was transferred into the glass syringe where it volatilized. Mice were transferred to the small cylindrical chamber, and the glass syringe was connected to the microcircuit in series. […] Delivery of TTD mixture was discontinued, and the mice were allowed to recover.
Separately, the trans-isomer of TTD isolated in step 5 of Example 1 above was administered to mice via inhalation exposure in a microcircuit connected using unidirectional airflow valves to a CO2 absorbent chamber and a glass syringe. A small amount of the TTD was transferred into the glass syringe where it volatilized. Mice were transferred to the small cylindrical chamber, and the glass syringe was connected to the microcircuit in series. […] Delivery of the TTD was discontinued, and the mice were allowed to recover.

SMILES	loss-of-righting-reflex (LORR) / anesthetic activity
FC1OC(F)(C(F)(F)F)OC1F (centres unmarked) [TTD mixture, 2,4,5-trifluoro-2-(trifluoromethyl)-1,3-dioxolane]	indicated a loss-of-righting-reflex (LORR)
F[C@@H]1OC(F)(C(F)(F)F)O[C@H]1F (relative stereo) [trans-isomer of TTD, trans-2,4,5-trifluoro-2-trifluoromethyl-1,3-dioxolane]	indicated a loss-of-righting-reflex (LORR)
